This passage reports IC50 results from US20170217946A1, “AMINO-SUBSTITUTED ISOXAZOLES” (Bayer Pharma Aktiengesellschaft, priority 2014, published 2017).

For one assay, the target named is T1, human Bub1 (Homo sapiens, UniProt O43683).
T1 construct: catalytic domain of human Bub1 (amino acids 704-1085); His6 (N); made in house; host or cells: insect cells (Hi5)
Kind of assay: Bub1 kinase assay (TR-FRET). The settings on record: 10 μM ATP. The format is biochemical. The source says:
Bub1-inhibitory activity of compounds of the present invention was quantified employing the Bub1 TR-FRET assay as described in the following paragraphs.
N-terminally His6-tagged recombinant catalytic domain of human Bub1 (amino acids 704-1085), expressed in insect cells (Hi5) and purified by Ni-NTA affinity chromatography and subsequent size exclusion chromatography, was used as enzyme. As substrate for the kinase reaction the biotinylated peptide biotin-Ahx-VLLPKKSFAEPG (C-terminus in amid form) was used which can be purchased e.g. form the company Biosyntan (Berlin, Germany).
For the assay 50 nl of a 100 fold concentrated solution of the test compound in DMSO was pipetted into a black low volume 384 well microtiter plate (Greiner Bio-One, Frickenhausen, Germany), 2 μl of a solution of Bub1 in aqueous assay buffer [50 mM Tris/HCl pH 7.5, 10 mM magnesium chloride (MgCl2), 200 mM potassium chloride (KCl), 1.0 mM dithiothreitol (DTT), 0.1 mM sodium ortho-vanadate, 1% (v/v) glycerol, 0.01% (w/v) bovine serum albumine (BSA), 0.005% (v/v) Trition X-100 (Sigma), 1× Complete EDTA-free protease inhibitor mixture (Roche)] were added and the mixture was incubated for 15 min at 22° C. to allow pre-binding of the test compounds to the enzyme before the start of the kinase reaction. Then the kinase reaction was started by the addition of 3 μl of a solution of adenosine-tri-phosphate (ATP, 16.7 μM=>final conc. in the 5 μl assay volume is 10 μM) and substrate (1.67 μM=>final conc. in the 5 μl assay volume is 1 μM) in assay buffer and the resulting mixture was incubated for a reaction time of 60 min at 22° C. The concentration of Bub1 was adjusted depending of the activity of the enzyme lot and was chosen appropriate to have the assay in the linear range, typical concentrations were in the range of 200 ng/ml. The reaction was stopped by the addition of 5 μl of a solution of TR-FRET detection reagents (0.2 μM streptavidine-XL665 [Cisbio Bioassays, Codolet, France] and 1 nM anti-phosho-Serine antibody [Merck Millipore, cat. #35-001] and 0.4 nM LANCE EU-W1024 labeled anti-mouse IgG antibody [Perkin-Elmer, product no. AD0077, as an alternative a Terbium-cryptate-labeled anti-mouse IgG antibody from Cisbio Bioassays can be used]) in an aqueous EDTA-solution (50 mM EDTA, 0.2% (w/v) bovine serum albumin in 100 mM HEPES pH 7.5).
The resulting mixture was incubated 1 h at 22° C. to allow the formation of complex between the phosphorylated biotinylated peptide and the detection reagents. Subsequently the amount of phosphorylated substrate was evaluated by measurement of the resonance energy transfer from the Eu-chelate to the streptavidine-XL. Therefore, the fluorescence emissions at 620 nm and 665 nm after excitation at 350 nm was measured in a TR-FRET reader, e.g. a Rubystar or Pherastar (both from BMG Labtechnologies, Offenburg, Germany) or a Viewlux (Perkin-Elmer). The ratio of the emissions at 665 nm and at […] was taken as the measure for the amount of phosphorylated substrate. The data were normalised (enzyme reaction without inhibitor=0% inhibition, all other assay components but no enzyme=100% inhibition).

Another assay relates to HeLa cells. Kind of assay: Proliferation assay (crystal violet). The settings on record: Homo sapiens, 96 h, 4 days incubation, read-out: Inhibition of proliferation HeLa IC50. The format is cell-based. The procedure: Cultivated tumor cells (cells were ordered from ATCC, except HeLa-MaTu and HeLa-MaTu-ADR, which were ordered from EPO-GmbH, Berlin) were plated at a density of 1000 to 5000 cells/well, depending on the growth rate of the respective cell line, in a 96-well multititer plate in 200 μL of their respective growth medium supplemented 10% fetal calf serum. After 24 hours, the cells of one plate (zero-point plate) were stained with crystal violet (see below), while the medium of the other plates was replaced by fresh culture medium (200 μl), to which the test substances were added in various concentrations (0 μM, as well as in the range of 0.001-10 μM; the final concentration of the solvent dimethyl sulfoxide was 0.5%). The cells were incubated for 4 days in the presence of test substances. Cell proliferation was determined by staining the cells with crystal violet: the cells were fixed by adding 20 μl/measuring point of an 11% glutaric aldehyde solution for 15 minutes at room temperature. After three washing cycles of the fixed cells with water, the plates were dried at room temperature. The cells were stained by adding 100 μl/measuring point of a 0.1% crystal violet solution (pH 3.0). After three washing cycles of the stained cells with water, the plates were dried at room temperature. The dye was dissolved by adding 100 μl/measuring point of a 10% acetic acid solution. Absorption was determined by photometry at a wavelength of 595 nm. The change of cell number, in percent, was calculated by normalization of the measured values to the absorption values of the zero-point plate (=0%) and the absorption of the untreated (0 μm) cells (=100%). The IC50 values were determined by means of a 4 parameter fit.

T1 sequence (O43683 704-1085): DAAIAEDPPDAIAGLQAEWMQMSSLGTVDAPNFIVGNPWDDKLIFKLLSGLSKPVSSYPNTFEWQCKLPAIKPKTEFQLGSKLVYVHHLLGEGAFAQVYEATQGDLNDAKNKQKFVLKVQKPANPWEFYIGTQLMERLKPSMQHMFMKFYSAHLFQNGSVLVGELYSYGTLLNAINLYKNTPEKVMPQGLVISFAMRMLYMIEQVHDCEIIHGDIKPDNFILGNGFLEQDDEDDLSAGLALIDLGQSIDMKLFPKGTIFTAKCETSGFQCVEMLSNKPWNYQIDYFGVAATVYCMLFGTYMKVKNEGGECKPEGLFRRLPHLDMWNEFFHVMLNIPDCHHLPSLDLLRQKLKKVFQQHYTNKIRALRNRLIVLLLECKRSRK

For `Cc1noc(Nc2cnc(C(F)(F)F)cn2)c1C(=O)Nc1ccc(OC2CCN(CCC(F)(F)F)CC2)nc1` [Example 1a, 3-Methyl-5-{[5-(trifluoromethyl)pyrazin-2-yl]amino}-N-(6-{[1-(3,3,3-trifluoropropyl)-piperidin-4-yl]oxy}pyridin-3-yl)-1,2-oxazole-4-carboxamide], the IC50 against human Bub1 is more than 20 µM; in the assay with HeLa cells, 1.9 µM.
In the same order, the values of `Cc1noc(Nc2cnc(C(=O)NC3CCN(CC(F)F)CC3)cn2)c1C(=O)Nc1ccc(F)c(F)c1` [Example 1b, N-[1-(2,2-Difluoroethyl)piperidin-4-yl]-5-({4-[(3,4-difluorophenyl)carbamoyl]-3-methyl-1,2-oxazol-5-yl}amino)pyrazine-2-carboxamide] are more than 20 µM and 3.4 µM.
In the same order, the values of `Cc1noc(Nc2cnc(C(F)(F)F)cn2)c1C(=O)Nc1ccc(F)c(F)c1` [Example 1c, N-(3,4-Difluorophenyl)-3-methyl-5-{[5-(trifluoromethyl)pyrazin-2-yl]amino}-1,2-oxazole-4-carboxamide] are more than 20 µM and 0.94 µM.
